# Where two headings read alike, the source gives them in different places.
# Columns and labels:
# [1] = human, microsomes, 1 μM, pH 7.4
# [2] = rat, microsomes, 1 μM, pH 7.4
# [3] = target: Beta Secretase enzyme (BACE) (Homo sapiens, UniProt P56817); assay: In vitro enzymatic BACE FRET (fluorescence resonance energy transfer) assay; assay type: biochemical;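 also: fluorescence read after 1 h with 50 nM quenched peptide substrate spanning the BACE cleavage site, in pH 4.2 acetate buffer containing 10% DMSO and nonionic detergent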
# [4] = tested on: Aβ40 in conditioned medium of cells stably expressing Amyloid Precursor Protein (APP); assay: In vitro BACE cell-based assay (Aβ40 in conditioned medium, sandwich ELISA); settings: Homo sapiens;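 also: compounds added as a dilution series, secreted peptide quantified by europium time-resolved fluorescence readout, potency fitted from percent of control versus compound concentration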
# Abeta peptide = assay: In vivo inhibition of beta-secretase (reduction of Abeta peptide in brain and cerebrospinal fluid); set-up: species or system rat; settings: Rattus norvegicus, po, 4 h, orally administered at 30 mg/kg dose, measured after 4 hours;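 also: abeta peptide quantified by sandwich ELISA with electrochemiluminescence readout in rat brain supernatant or CSF, relative to vehicle-dosed control animals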
# CYP3A4 (CYP3A) = CYP3A4 (CYP3A) (Homo sapiens, UniProt P08684); assay: in vitro; settings: microsomes, pH 7.4;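 also: inhibition of CYP3A-mediated 1-hydroxymidazolam formation after 10 min incubation with NADPH, quantified by HPLC MS relative to metabolite produced without test compound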
# [5] = Microsomal stability assay, rat liver microsomes;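 also: rat liver microsomes (0.25 mg/mL) with about 1 µM compound plus 1 mM NADPH, pH 7.4, 37 °C for 30 min, parent left measured by LC-MS/MS against 0 min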
# [6] = Microsomal stability assay, human liver microsomes;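 also: pooled human liver microsomes at 0.25 mg/mL with 1 µM compound and NADPH at 37 °C, pH 7.4, for 30 min, unchanged parent quantified by LC-MS/MS against the 0 min sample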
# CYP2D6 = CYP2D6 (Homo sapiens, UniProt P10635); assay: CYP2D6 inhibition assay (bufuralol, pooled human liver microsomes)
# [7] = read-out: BACE1 FRET assay (IC50)
# [8] = HEK293, HEK cells, read-out: HEK cell assay (IC50)
# [9] = rat cerebrospinal fluid, read-out: percent reduction of abeta peptide in the cerebrospinal fluid of the rat
# [10] = rat brain, read-out: percent reduction of abeta peptide in the brain of the rat
# [11] = BACE enzyme assay, IC50's in uM, read-out: BACE1 FRET assay
# [12] = HEK293, HEK cell-based assay, IC50's in uM, read-out: HEK cell assay
# [13] = 2D6 IC50 (uM), CYP enzyme inhibition
# [14] = BACE enzyme assay IC50, read-out: BACE1 FRET assay
# [15] = HEK293, HEK cell-based assay IC50, read-out: HEK cell assay
# [16] = 2D6 IC50 (uM), CYP2D6 inhibition
# [17] = BACE enzyme assay, read-out: BACE1 FRET assay
# [18] = HEK293, HEK cells, read-out: HEK cell assay
# Sequence of Beta Secretase enzyme (BACE) (P56817 46-501): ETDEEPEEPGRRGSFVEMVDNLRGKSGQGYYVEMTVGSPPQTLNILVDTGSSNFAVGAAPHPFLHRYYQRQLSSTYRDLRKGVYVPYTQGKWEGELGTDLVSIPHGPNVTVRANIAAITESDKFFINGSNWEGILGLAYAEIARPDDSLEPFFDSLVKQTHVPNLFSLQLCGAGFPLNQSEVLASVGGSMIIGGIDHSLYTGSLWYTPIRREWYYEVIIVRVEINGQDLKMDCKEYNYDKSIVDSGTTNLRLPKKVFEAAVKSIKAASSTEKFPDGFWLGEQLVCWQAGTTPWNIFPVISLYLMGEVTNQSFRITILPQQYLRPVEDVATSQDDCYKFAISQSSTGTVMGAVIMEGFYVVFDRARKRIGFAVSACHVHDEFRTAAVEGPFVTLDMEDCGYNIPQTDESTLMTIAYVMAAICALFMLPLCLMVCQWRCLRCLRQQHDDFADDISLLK
# Sequence of CYP2D6 (P10635 whole entry): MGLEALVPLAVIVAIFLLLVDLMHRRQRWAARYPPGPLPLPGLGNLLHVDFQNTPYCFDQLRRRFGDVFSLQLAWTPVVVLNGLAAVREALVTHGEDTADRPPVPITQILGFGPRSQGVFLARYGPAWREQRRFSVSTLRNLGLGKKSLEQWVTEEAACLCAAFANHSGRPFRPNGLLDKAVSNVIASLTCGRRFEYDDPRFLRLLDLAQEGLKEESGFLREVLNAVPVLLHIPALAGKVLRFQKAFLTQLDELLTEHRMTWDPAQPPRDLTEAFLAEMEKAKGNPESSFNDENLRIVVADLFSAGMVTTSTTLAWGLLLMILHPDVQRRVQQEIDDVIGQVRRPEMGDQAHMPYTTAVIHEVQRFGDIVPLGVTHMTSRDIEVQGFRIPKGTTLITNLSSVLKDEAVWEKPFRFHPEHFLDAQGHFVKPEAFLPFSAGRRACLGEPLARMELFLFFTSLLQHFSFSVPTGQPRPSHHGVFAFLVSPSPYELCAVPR
# Sequence of CYP3A4 (CYP3A) (P08684 2-503): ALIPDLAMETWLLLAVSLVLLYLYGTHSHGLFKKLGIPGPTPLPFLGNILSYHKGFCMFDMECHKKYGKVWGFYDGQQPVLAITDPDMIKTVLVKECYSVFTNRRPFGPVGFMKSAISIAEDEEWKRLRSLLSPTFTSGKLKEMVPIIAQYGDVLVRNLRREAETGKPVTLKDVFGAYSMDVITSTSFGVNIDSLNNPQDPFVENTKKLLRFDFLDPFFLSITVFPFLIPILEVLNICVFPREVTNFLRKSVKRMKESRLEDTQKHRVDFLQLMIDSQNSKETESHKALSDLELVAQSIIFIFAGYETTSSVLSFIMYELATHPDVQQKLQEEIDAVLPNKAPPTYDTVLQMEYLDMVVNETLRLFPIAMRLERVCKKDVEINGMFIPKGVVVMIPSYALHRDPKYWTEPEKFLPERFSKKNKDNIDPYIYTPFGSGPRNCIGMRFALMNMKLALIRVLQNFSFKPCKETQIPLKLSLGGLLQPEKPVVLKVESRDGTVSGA
SMILES,inhibition in vivo at 30 mg/kg (Abeta peptide; [9]) [%],IC50 (CYP3A4 (CYP3A)) [nM],RLM ([5]; rat liver microsomes) [µL/min/mg],HLM ([6]; human liver microsomes) [µL/min/mg],RLM ([5]; rat liver microsomal data) [µL/min/mg],HLM ([6]; human liver microsomal data) [µL/min/mg],IC50 (CYP2D6; [13]) [µM],further results
"COCC(=O)N[C@@H](Cc1cccc(-c2nccs2)c1)[C@H](O)CN[C@H]1C[C@@]2(CCOC2)Oc2ncc(CC(C)(C)C)cc21 [compound 823, N-((1S,2R)-3-(((3S,4′S)-6′-(2,2-dimethylpropyl)-3′,4,4′,5-tetrahydrospiro[furan-3,2′-pyrano[2,3-b]pyridin]-4′-yl)amino)-2-hydroxy-1-(3-(1,3-thiazol-2-yl)benzyl)propyl)-2-methoxyacetamide]",–,–,–,–,–,–,–,HLM [1]: 57 µL/min/mg; RLM [2]: 171 µL/min/mg
COCC(=O)N[C@@H](Cc1cc(F)cc(F)c1)[C@H](O)CN[C@H]1CC2(CCC2)Oc2c1cc([C@H]1CC1(C)C)nc2-c1ccncc1 [compound 678],–,–,–,–,–,–,–,HLM [1]: 23 µL/min/mg; RLM [2]: 79 µL/min/mg
C#Cc1cccc(C[C@H](NC(=O)COC)[C@H](O)CN[C@H]2C[C@]3(CCOC3)Oc3ncc(CC(C)(C)C)cc32)c1 [compound 868],–,–,–,–,–,–,–,HLM [1]: 14 µL/min/mg; RLM [2]: 86 µL/min/mg
COCC(=O)N[C@@H](Cc1cccc(-c2nccs2)c1)[C@H](O)CN[C@H]1C[C@]2(CCOC2)Oc2ncc(CC(C)(C)C)cc21 [compound 822],–,–,–,–,–,–,–,HLM [1]: 54 µL/min/mg; RLM [2]: 101 µL/min/mg
COCC(=O)N[C@@H](Cc1cccc(-c2nccs2)c1)[C@H](O)CN[C@H]1C[C@]2(CCOC2)Oc2ncc(CC(C)(C)C)cc21 [compound 845],–,–,–,–,–,–,–,HLM [1]: 64 µL/min/mg; RLM [2]: 152 µL/min/mg
COCC(=O)N[C@@H](Cc1ccncc1)[C@H](O)CN[C@H]1CC2(CCC2)Oc2c(-c3ccncc3)cc(CC(C)C)cc21 [Example 628],10 to 80,100,239,94,–,–,–,"IC50 [3, 7]: 0.045 µM; IC50 [4, 8]: 0.007 µM; IC50 (CYP2D6; 2D6 IC50, CYP2D6 inhibition): 1.9 µM"
CO[C@H](C)C(=O)N[C@@H](Cc1ccc2c(c1)OCO2)[C@H](O)CN[C@H]1CC2(CCC2)Oc2ncc([C@@H]3CC3(C)C)cc21 [Example 578],–,100,185,36,–,–,–,"IC50 [3, 7]: 0.018 µM; IC50 [4, 8]: 0.019 µM; inhibition in vivo at 30 mg/kg (Abeta peptide; [10]): 5 to 80%; IC50 (CYP2D6; 2D6 IC50, CYP2D6 inhibition): 2 µM"
"COC(OC)C(=O)N[C@@H](Cc1cccc(-c2ncco2)c1)[C@H](O)CN[C@H]1CC2(CCC2)Oc2ncc(CC(C)(C)C)cc21 [Example 826, N-((1S,2R)-3-(((4′S)-6′-(2,2-dimethylpropyl)-3′,4′-dihydrospiro[cyclobutane-1,2′-pyrano[2,3-b]pyridin]-4′-yl)amino)-2-hydroxy-1-(3-(1,3-oxazol-2-yl)benzyl)propyl)-2,2-dimethoxyacetamide]",10 to 80,200,–,–,55,66,0.9,"IC50 [3, 11]: 0.012 µM; IC50 [4, 12]: 0.013 µM; inhibition in vivo at 30 mg/kg (Abeta peptide; [10]): 5 to 80%"
C#Cc1ccc(F)c(C[C@H](NC(=O)[C@@H](C)OC)[C@H](O)CN[C@H]2CC3(CCC3)Oc3ncc(CC(C)(C)C)cc32)c1 [Example 902],10 to 80,100,–,–,70,36,–,"IC50 [3, 11]: 0.006 µM; IC50 ([4]; HEK293, cell-based assay, HEK cells, IC50's in uM, read-out: HEK cell assay): 0.026 µM; IC50 (CYP2D6; 2D6 IC50, CYP enzyme inhibition): 0.9 µM"
COCC(=O)N[C@@H](Cc1ccc(F)cc1)[C@H](O)CN[C@H]1CC(C)(C)Oc2c1cc(CC(C)C)c1c2OCO1 [Example 747],10 to 80,200,217,125,–,–,–,"IC50 [3, 14]: 0.209 µM; IC50 [4, 15]: 0.243 µM; IC50 (CYP2D6; [16]): 9.1 µM"
CC(=O)N[C@@H](Cc1ccccc1)[C@H](O)CN[C@H]1CC2(CCC2)Oc2c1cc(CC(C)(C)C)nc2-c1ccncc1 [Example 542],10 to 80,200,–,–,193,36,≥ 27,"IC50 [3, 17]: 0.024 µM; IC50 [4, 18]: 0.103 µM"
CO[C@H](C)C(=O)N[C@@H](Cc1cccc(F)c1)[C@H](O)CN[C@H]1CC2(CCC2)Oc2c1cc(CC(C)C)cc2-n1ccnc1 [Example 521],10 to 80,100,–,–,142,27,1.9,"IC50 [3, 17]: 0.019 µM; IC50 [4, 18]: 0.015 µM"
"COCC(=O)N[C@@H](Cc1cc(F)cc(-c2nccs2)c1)[C@H](O)CN[C@H]1CC2(CCC2)Oc2cnc(CC(C)(C)C)cc21 [Example 782, N-((1S,2R)-3-(((4′S)-6′-(2,2-dimethylpropyl)-3′,4′-dihydrospiro[cyclobutane-1,2′-pyrano[2,3-c]pyridin]-4′-yl)amino)-1-(3-fluoro-5-(1,3-thiazol-2-yl)benzyl)-2-hydroxypropyl)-2-methoxyacetamide]",10 to 80,300,–,–,130,94,0.4,"IC50 [3, 11]: 0.015 µM; IC50 [4, 12]: 0.036 µM; inhibition in vivo at 30 mg/kg (Abeta peptide; [10]): 5 to 80%"
CC(=O)N[C@@H](Cc1ccc(F)c(-c2nccs2)c1)[C@H](O)CN[C@H]1CC2(CCC2)Oc2ccc(CC(C)(C)C)cc21 [Example 640],10 to 80,700,113,59,–,–,–,"IC50 [3, 7]: 0.006 µM; IC50 [4, 8]: 0.053 µM; IC50 (CYP2D6; 2D6 IC50, CYP2D6 inhibition): 0.3 µM"
COCC(=O)N[C@@H](Cc1ccccc1)[C@H](O)CN[C@H]1CC2(CCC2)Oc2c1cc(CC(C)(C)C)nc2-c1ccncc1 [Example 541],10 to 80,100,–,–,192,31,2.1,"IC50 [3, 17]: 0.02 µM; IC50 [4, 18]: 0.055 µM"
COCC(=O)N[C@@H](Cc1cc(F)cc(F)c1)[C@H](O)CN[C@H]1CC2(CCC2)Oc2c1cc(CC(C)(C)C)nc2-c1ccncc1 [Example 528],10 to 80,100,–,–,72,19,1.3,"IC50 [3, 17]: 0.01 µM; IC50 [4, 18]: 0.023 µM"
"CC(=O)N[C@@H](Cc1cc(F)cc(-c2nccs2)c1)[C@H](O)CN[C@H]1CC2(CCC2)Oc2ncc(CC(C)(C)C)cc21 [Example 643, N-((1S,2R)-3-(((4′S)-6′-(2,2-dimethylpropyl)-3′,4′-dihydrospiro[cyclobutane-1,2′-pyrano[2,3-b]pyridin]-4′-yl)amino)-1-(3-fluoro-5-(1,3-thiazol-2-yl)benzyl)-2-hydroxypropyl)acetamide]",10 to 80,100,56,68,–,–,–,"IC50 [3, 7]: 0.002 µM; IC50 [4, 8]: 0.012 µM; inhibition in vivo at 30 mg/kg (Abeta peptide; [10]): 5 to 80%; IC50 (CYP2D6; 2D6 IC50, CYP2D6 inhibition): 0.7 µM"
CC(=O)N[C@@H](Cc1ccc(-c2nccs2)cc1)[C@H](O)CN[C@H]1CC2(CCC2)Oc2ncc(CC(C)(C)C)cc21 [Example 677],10 to 80,100,52,57,–,–,–,"IC50 [3, 14]: 0.015 µM; IC50 [4, 15]: 0.028 µM; inhibition in vivo at 30 mg/kg (Abeta peptide; [10]): 5 to 80%; IC50 (CYP2D6; [16]): 1 µM"
C#Cc1cccc(C[C@H](NC(=O)C(OC)OC)[C@H](O)CN[C@H]2CC3(CCC3)Oc3ncc(CC(C)(C)C)cc32)c1 [Example 844],≥ 50,100,–,–,44,32,1.5,"IC50 [3, 11]: 0.005 µM; IC50 [4, 12]: 0.006 µM"

# From patent US8163909B2, “Substituted hydroxyethyl amine compounds as beta-secretase modulators and methods of use” (Amgen Inc., priority 2007, dated 2012)
